Laboratory results from patent US7368475B2, “Furanose-type bicyclic carbohydrates with biological activity” (Kemin Pharma BVBA, priority 2003, dated 2008).
Values after ≈ are worked out from the molar mass of the structure shown.

Tests used:
[1] = test system: P. aeruginosa ATCC 27853 LMG 16217; experiment: microbe, parasite or virus in culture; assay type: cell-based; settings: Pseudomonas aeruginosa, negative control = 100, read-out: % of growth at 25 PPM compared to negative control, P. aeruginosa ATCC 27853 LMG 16217
VV = experiment: VV-induced cytopathicity in human embryo fibroblast E6SM; assay type: cell-based, Vaccinia Virus; settings: for EC50: Orthopoxvirus vaccinia, E6SM, read-out: EC50 VV (E6SM)
[2] = test system: S. aureus ATCC 29213 LMG 10147; experiment: microbe, parasite or virus in culture; assay type: cell-based; settings: Staphylococcus aureus, negative control = 100, read-out: % of growth at 25 PPM compared to negative control, S. aureus ATCC 29213 LMG 10147
[3] = test system: T. mentagrophytes ATCC 9233 IHEM 10342; experiment: microbe, parasite or virus in culture; assay type: cell-based; settings: Trichophyton mentagrophytes, ATCC9233, negative control = 100, read-out: % of growth at a dose of 25 PPM compared to the negative control, T. mentagrophytes ATCC 9233 IHEM 10342
HSV-2 (G) = experiment: HSV-2 (G)-induced cytopathicity in human embryo fibroblast E6SM; assay type: cell-based, Herpes Simplex Virus; settings: Human alphaherpesvirus 2
[4] = test system: C. neoformans ATCC 90112 IHEM 9558; experiment: microbe, parasite or virus in culture; assay type: cell-based; settings: Cryptococcus neoformans, ATCC90112, negative control = 100, read-out: % of growth at a dose of 25 PPM compared to the negative control, C. neoformans ATCC 90112 IHEM 9558
HSV-1 (KOS) = experiment: HSV-1 (KOS)-induced cytopathicity in human embryo fibroblast E6SM; assay type: cell-based, Herpes Simplex Virus; settings: Human alphaherpesvirus 1
CMV AD-169 Strain = experiment: CMV plaque formation in HEL cells, AD-169 strain; assay type: cell-based, human Cytomegalovirus; settings: for IC50: Human betaherpesvirus 5, AD169, virus plaque formation, HEL cells, virus input 100 PFU; for activity against CMV (in words): strain not specified
[5] = test system: E. faecalis ATCC 29212 LMG 8222; experiment: microbe, parasite or virus in culture; assay type: cell-based; settings: Enterococcus faecalis, negative control = 100, read-out: % of growth at 25 PPM compared to negative control, E. faecalis ATCC 29212 LMG 8222
CMV David Strain = experiment: CMV plaque formation in HEL cells, David strain; assay type: cell-based, human Cytomegalovirus; settings: Human betaherpesvirus 5, virus plaque formation, virus input 100 PFU
[6] = test system: C. perfringens ATCC 13124; assay type: cell-based, Clostridium perfringens; settings: negative control = 100
VZV 07/1 = experiment: microbe, parasite or virus in culture; assay type: cell-based, Varicella Zoster Virus; settings: Human alphaherpesvirus 3, HEL, read-out: EC50 VZV (HEL) 07/1
[7] = test system: Candida albicans ATCC 24433 IHEM 10284; experiment: microbe, parasite or virus in culture; assay type: cell-based; settings: ATCC24433, negative control = 100, read-out: % of growth at a dose of 25 PPM compared to the negative control, Candida albicans ATCC 24433 IHEM 10284
VZV OKA = experiment: microbe, parasite or virus in culture; assay type: cell-based, Varicella Zoster Virus; settings: Human alphaherpesvirus 3, HEL, read-out: EC50 VZV (HEL) OKA
A. fumigatus IHEM 2895 = experiment: microbe, parasite or virus in culture; assay type: cell-based; settings: Aspergillus fumigatus, IHEM2895, negative control = 100, read-out: % of growth at a dose of 25 PPM compared to the negative control, A. fumigatus IHEM 2895
E. coli ATCC 25922 = experiment: microbe, parasite or virus in culture; assay type: cell-based; settings: Escherichia coli, ATCC25922, negative control = 100, read-out: % of growth at 25 PPM compared to negative control, E. coli ATCC 25922
[8] = test system: human T-lymphocyte cells (Molt4/C8); experiment: Inhibition of proliferation of human T-lymphocyte cells Molt4/C8; assay type: cell-based; settings: cytostatic activity, 50% inhibitory concentration
Description: (§1) The compounds were tested for antitumor activity via the inhibitory effects on the proliferation of murine leukemia cells (L1210/0), murine mammary carcinoma cells (FM3A) and human T-lymphocyte cells (Molt4/C8), (CEM/0). […] Compound A1 and Compound A4 show no effect at concentrations up to 200 ppm.

[9] = test system: murine mammary carcinoma cells (FM3A); experiment: Inhibition of proliferation of murine mammary carcinoma cells FM3A; assay type: cell-based; settings: Mus musculus, cytostatic activity, 50% inhibitory concentration, read-out: IC50 FM3A/0
Description: as §1

HIV-2 (ROD) = experiment: HIV-2 (ROD)-induced cytopathicity in human CEM cell cultures; assay type: cell-based; settings: Human immunodeficiency virus 2, CCRF-CEM
[10] = test system: murine leukemia cells (L1210/0); experiment: Inhibition of proliferation of murine leukemia cells L1210/0; assay type: cell-based; settings: for IC50: Mus musculus, L1210/0, read-out: IC50 L1210/0; for effect on cell proliferation (in words): at concentrations up to 200 ppm, L1210/0, FM3A
Description: as §1

[11] = test system: human T-lymphocyte cells (CEM/0); experiment: Inhibition of proliferation of human T-lymphocyte cells CEM/0; assay type: cell-based; settings: CCRF-CEM, cytostatic activity, 50% inhibitory concentration
Description: as §1

HIV-1 (IIIB) = experiment: microbe, parasite or virus in culture; assay type: cell-based; settings: Human immunodeficiency virus 1, IIIB, CCRF-CEM; HIV-induced cytopathicity in human CEM cell cultures

SMILES | activity at 25 ppm [1] [%] | EC50 (VV) [µg/mL] | activity at 25 ppm [2] [%] | activity at 25 ppm [3] [%] | EC50 (HSV-2 (G)) [µg/mL] | activity at 25 ppm [4] [%] | EC50 (HSV-1 (KOS)) [µg/mL] | IC50 (CMV AD-169 Strain) [µg/mL] | activity against CMV (in words) (CMV AD-169 Strain) | activity at 25 ppm [5] [%] | IC50 (CMV David Strain) [µg/mL] | % of growth at 25 PPM compared to negative control, C. perfringens ATCC 13124 [6] [%] | EC50 (VZV 07/1) [µg/mL] | activity at 25 ppm [7] [%] | EC50 (VZV OKA) [µg/mL] | activity at 25 ppm (A. fumigatus IHEM 2895) [%] | activity at 25 ppm (E. coli ATCC 25922) [%] | IC50 [8] [µg/mL] | IC50 [9] [µg/mL] | EC50 (HIV-2 (ROD)) [µg/mL] | also measured
CC1(C)O[C@H]2O[C@H](COCc3ccccc3)[C@H](OCc3ccccc3)[C@H]2O1 [Compound A9, α-D-1,2-O-isopropylidene-3,5-O-dibenzyl-xylofuranose] | 93 | 48 (≈ 130 µM) | 93.7 | 92 | > 80 | 55.1 | > 80 | 10.5 (≈ 28.3 µM) | significant activity | 102 | 7.6 (≈ 20.5 µM) | 95.1 | > 80 | 85.9 | > 80 | 74 | 95.6 | – | – | – | activity against VV (in words) (VV; Table 2): slight activity
OC[C@H]1O[C@@H](c2ccccc2)C[C@@H]1O [Compound A8, β-D-1,2-dideoxy-1-phenyl-ribofuranose] | 92.7 | > 400 | 92.3 | 95 | > 400 | 84.8 | > 400 | > 100 | – | 95.5 | > 100 | 96.2 | – | 92.4 | – | 107 | 99.2 | – | – | – | melting point: 89 to 91 °C
CO[C@@H]1[C@@H]2O[Si](C(C)C)(C(C)C)O[Si](C(C)C)(C(C)C)OC[C@H]2O[C@H]1c1ccccc1 [Compound A3, β-D-1-Deoxy-1-phenyl-2-O-methyl-3,5-O-(1,1,3,3-tetraisopropyldisiloxanylidene)-ribofuranose] | 87.6 | > 16 | 92.5 | 64.4 | > 16 | 81.1 | > 16 | 1.3 (≈ 2.79 µM) | significant activity | 94.2 | 1.3 (≈ 2.79 µM) | – | > 2 | 62.2 | > 2 | 37.5 | 91.3 | 19 ± 2 (≈ 40.7 µM) | 15 (≈ 32.1 µM) | > 4 | IC50 [10]: 18 ± 0.5 µg/mL (≈ 38.6 µM); cytostatic activity (in words) ([10]; text summary over L1210/0, FM3A, Molt4/C8, CEM/0): small cytostatic activity; IC50 [11]: 20 ± 4 µg/mL (≈ 42.8 µM); EC50 (HIV-1 (IIIB)): > 4 µg/mL
OC[C@H]1O[C@@H](c2ccccc2)[C@H](O)[C@@H]1O [Compound A1, β-D-1-Deoxy-1-phenyl-ribofuranose] | 92.7 | > 400 | 96.7 | 62.4 | > 400 | 93.3 | > 400 | > 50 | – | 96 | > 50 | – | > 50 | 89.2 | > 50 | 106 | 93.4 | > 200 | > 200 | > 100 | IC50 [10]: > 200 µg/mL; effect on cell proliferation (in words) ([10]; Molt4/C8, CEM/0): no effect; IC50 [11]: > 200 µg/mL; melting point: 118 °C; EC50 (HIV-1 (IIIB)): > 100 µg/mL
CO[C@@H]1[C@H](O)[C@@H](CO)O[C@H]1c1ccccc1 [Compound A4, β-D-1-Deoxy-1-phenyl-2-O-methyl-ribofuranose] | 93.5 | > 400 | 96.9 | 79.7 | > 400 | 99.9 | > 400 | > 50 | – | 95.4 | > 50 | – | > 50 | 110 | > 50 | 70.9 | 92.8 | > 200 | > 200 | > 100 | IC50 [10]: > 200 µg/mL; effect on cell proliferation (in words) ([10]; Molt4/C8, CEM/0): no effect; IC50 [11]: > 200 µg/mL; EC50 (HIV-1 (IIIB)): > 100 µg/mL
CC(=O)OC[C@H]1O[C@@H](c2ccccc2)C[C@@H]1OC(C)=O [Compound A7, β-D-1,2-dideoxy-1-phenyl-ribofuranose-3,5-diacetate] | 92.7 | > 400 | 91.2 | 83 | > 400 | 67.8 | > 400 | > 100 | – | 98.1 | > 100 | 95.4 | – | 83.4 | – | 95 | 94.8 | – | – | – | –
CO[C@@H]1[C@@H]2O[C@H](c3ccccc3)OC[C@H]2O[C@H]1c1ccccc1 [Compound A5, β-D-1-Deoxy-1-phenyl-2-O-methyl-3,5-O-benzylidene-ribose] | 91 | – | 92 | 66 | – | 76 | – | – | slight | 92 | – | 95.0 | – | 120 | – | 57 | 124 | – | – | – | –
CC(C)[Si]1(C(C)C)OC[C@H]2OC(c3ccccc3)C[C@@H]2O[Si](C(C)C)(C(C)C)O1 (stereo partly drawn) [Compound A6 A + B, α-β-D-1,2-dideoxy-1-phenyl-3,5-O-(1,1,3,3-tetraisopropyldisiloxanylidene)-ribofuranose] | 92 | – | 95 | 56 | – | 102 | – | – | – | 95 | – | 98.0 | – | 85 | – | 54 | 94 | – | – | – | –
